Assay results taken from patent publication US20120316184A1, “NOVEL MICROBICIDES” (SYNGENTA CROP PROTECTION LLC, priority 2010, published 2012).

Key:
Phytophthora infestans = format: in vivo; details: 200 ppm; tomato leaf disks, inoculated 1 day after application, assessed 5-7 days after application, vs untreated
[1] = test system: Monographella nivalis (Microdochium nivale); assay: Fungicidal activity against Monographella nivalis (Microdochium nivale) / liquid culture (foot rot cereals); format: cell-based; details: liquid culture (PDB), inhibition of growth determined photometrically 4-5 days after application, read-out: disease control
Procedure: (§1) Fungicidal Activity Against Monographella nivalis (Microdochium nivale)/Liquid Culture (Foot Rot Cereals) Conidia of the fungus from cryogenic storage were directly mixed into nutrient broth (PDB potato dextrose broth). After placing a (DMSO) solution of test compound into a microtiter plate (96-well format), the nutrient broth containing the fungal spores was added. The test plates were incubated at 24° C. and the inhibition of growth was determined photometrically 4-5 days after application.

[2] = test system: Mycosphaerella arachidis (Cercospora arachidicola); assay: Fungicidal activity against Mycosphaerella arachidis (Cercospora arachidicola) / liquid culture (early leaf spot); format: cell-based; details: liquid culture (PDB), inhibition of growth determined photometrically 4-5 days after application, read-out: disease control
Procedure: as §1, with “Mycosphaerella arachidis (Cercospora arachidicola)/Liquid” for “Monographella nivalis (Microdochium nivale)/Liquid”, “(Early Leaf Spot)” for “(Foot Rot Cereals)”

Gaeumannomyces graminis = assay: Fungicidal activity against Gaeumannomyces graminis / liquid culture (take-all of cereals); format: cell-based; details: liquid culture (PDB), inhibition of growth determined photometrically 4-5 days after application, read-out: disease control
Procedure: as §1, with “Against Gaeumannomyces graminis/Liquid” for “Against Monographella nivalis (Microdochium nivale)/Liquid”, “Culture (Take-all of” for “Culture (Foot Rot”, “Cereals) Mycelial fragments” for “Cereals) Conidia”, “spores is” for “spores was”

[3] = test system: Mycosphaerella graminicola (Septoria tritici); assay: Fungicidal activity against Mycosphaerella graminicola (Septoria tritici) / liquid culture (Septoria blotch); format: cell-based; details: Zymoseptoria tritici, liquid culture (PDB), inhibition of growth determined photometrically 4-5 days after application, read-out: disease control
Procedure: as §1, with “Mycosphaerella graminicola (Septoria tritici)/Liquid” for “Monographella nivalis (Microdochium nivale)/Liquid”, “(Septoria Blotch)” for “(Foot Rot Cereals)”

[4] = test system: Puccinia recondita f. sp. tritici; assay: Fungicidal activity against Puccinia recondita f. sp. tritici / wheat / leaf disc preventative (brown rust); format: in vivo; details: foliar, wheat leaf segments cv. Kanzler, inoculated 1 day after application, assessed 7-9 days after application, vs untreated, read-out: disease control
Procedure: Fungicidal Activity Against Puccinia recondita f. sp. tritici/Wheat/Leaf Disc Preventative (Brown Rust) Wheat leaf segments cv. Kanzler were placed on agar in multiwell plates (24-well format) and sprayed with the formulated test compound diluted in water. The leaf disks were inoculated with a spore suspension of the fungus 1 day after application. The inoculated leaf segments were incubated at 19° C. and 75% rh under a light regime of 12 h light/12 h darkness in a climate cabinet and the activity of a compound was assessed as percent disease control compared to untreated when an appropriate level of disease damage appears in untreated check leaf segments (7-9 days after application).

[5] = test system: Glomerella lagenarium (Colletotrichum lagenarium); assay: Fungicidal activity against Glomerella lagenarium (Colletotrichum lagenarium) / liquid culture (anthracnose); format: cell-based; details: Colletotrichum orbiculare, liquid culture (PDB), inhibition of growth measured photometrically 3-4 days after application, read-out: disease control
Procedure: as §1, with “Glomerella lagenarium (Colletotrichum lagenarium)/Liquid” for “Monographella nivalis (Microdochium nivale)/Liquid”, “(Anthracnose)” for “(Foot Rot Cereals)”, “measured” for “determined”, “3-4” for “4-5”

[6] = test system: Phaeosphaeria nodorum (Septoria nodorum); assay: Fungicidal activity against Phaeosphaeria nodorum (Septoria nodorum) / wheat / leaf disc preventative (glume blotch); format: in vivo; details: Parastagonospora nodorum, foliar, wheat leaf segments cv. Kanzler, inoculated 2 days after application, assessed 5-7 days after application, vs untreated, read-out: disease control
Procedure: Fungicidal Activity Against Phaeosphaeria nodorum (Septoria nodorum)/Wheat/Leaf Disc Preventative (Glume Blotch) Wheat leaf segments cv. Kanzler were placed on agar in a multiwell plate (24-well format) and sprayed with the formulated test compound diluted in water. The leaf disks were inoculated with a spore suspension of the fungus 2 days after application. The inoculated test leaf disks were incubated at 20° C. and 75% rh under a light regime of 12 h light/12 h darkness in a climate cabinet and the activity of a compound was assessed as percent disease control compared to untreated when an appropriate level of disease damage appears in untreated check leaf disks (5-7 days after application).

[7] = test system: Botryotinia fuckeliana (Botrytis cinerea); assay: Fungicidal activity against Botryotinia fuckeliana (Botrytis cinerea) / liquid culture (gray mould); format: cell-based; details: liquid culture (Vogels broth), inhibition of growth determined photometrically 3-4 days after application, read-out: disease control
Procedure: as §1, with “Botryotinia fuckeliana (Botrytis cinerea)/Liquid” for “Monographella nivalis (Microdochium nivale)/Liquid”, “(Gray Mould)” for “(Foot Rot Cereals)”, “(Vogels” for “(PDB potato dextrose”, “3-4” for “4-5”

Pyrenophora teres = assay: Fungicidal activity against Pyrenophora teres / barley / leaf disc preventative (net blotch); format: in vivo; details: foliar, barley leaf segments cv. Hasso, inoculated 2 days after application, assessed 5-7 days after application, vs untreated, read-out: disease control
Procedure: Fungicidal Activity Against Pyrenophora teres/Barley/Leaf Disc Preventative (Net Blotch) Barley leaf segments cv. Hasso were placed on agar in a multiwell plate (24-well format) and sprayed with the formulated test compound diluted in water. The leaf […] inoculated with a spore suspension of the fungus 2 days after application. The inoculated leaf segments were incubated at 20° C. and 65% rh under a light regime of 12 h light/12 h darkness in a climate cabinet and the activity of a compound was assessed as disease control compared to untreated when an appropriate level of disease damage appears in untreated check leaf segments (5-7 days after application).

SMILES	disease control (Phytophthora infestans)	inhibition of growth at 200 ppm [1] [%]	inhibition of growth at 200 ppm [2] [%]	inhibition of growth at 200 ppm (Gaeumannomyces graminis) [%]	inhibition of growth at 200 ppm [3] [%]	pest or weed control at 200 ppm [4] [%]	inhibition of growth at 200 ppm [5] [%]	pest or weed control at 200 ppm [6] [%]	inhibition of growth at 200 ppm [7] [%]	pest or weed control at 200 ppm (Pyrenophora teres) [%]
c1ccc(Cc2cccc(-c3ncc4ccsc4n3)n2)cc1 [Compound T3.1.31, 2-(6-benzyl-pyridin-2-yl)-thieno[2,3-d]pyrimidine]	at least 80%	–	–	–	–	–	–	–	–	–
Clc1nc(-c2cccc(Cc3ccccc3)n2)nc2sccc12 [Compound T3.1.33, 2-(6-benzyl-pyridin-2-yl)-4-chloro-thieno[2,3-d]pyrimidine]	–	≥ 80	≥ 80	≥ 80	≥ 80	≥ 80	≥ 80	≥ 80	–	–
COc1nc(-c2cccc(Cc3ccccc3)n2)nc2sccc12 [Compound T3.1.35, 2-(6-benzyl-pyridin-2-yl)-4-methoxy-thieno[2,3-d]pyrimidine]	–	≥ 80	≥ 80	≥ 80	≥ 80	–	≥ 80	≥ 80	–	–
Cc1ccc(-c2ncc3cccnc3n2)nc1-c1ccccc1 [Compound T10.1.6, 2-(5-methyl-6-phenyl-pyridin-2-yl)-pyrido[2,3-d]pyrimidine]	–	≥ 80	≥ 80	≥ 80	≥ 80	≥ 80	≥ 80	≥ 80	≥ 80	≥ 80
CCOc1nc(-c2cccc(Cc3ccccc3)n2)nc2sccc12 [Compound T15.1]	–	≥ 80	≥ 80	≥ 80	≥ 80	≥ 80	≥ 80	–	–	–
c1ccc(Cc2cccc(-c3ncc4c5c(sc4n3)CCC5)n2)cc1 [Compound T15.2]	–	–	≥ 80	≥ 80	–	–	–	–	–	–
Cc1sc2nc(-c3cccc(Cc4ccccc4)n3)ncc2c1C [Compound T15.4]	–	≥ 80	≥ 80	≥ 80	–	–	–	–	≥ 80	≥ 80
Cc1cc(F)ccc1-c1cccc(-c2nc(O)c3ccsc3n2)n1 [Compound T15.5]	–	–	–	≥ 80	–	–	–	–	≥ 80	–
Cc1ccc(C)c(-c2cccc(-c3nc(O)c4ccsc4n3)n2)c1 [Compound T15.7]	–	≥ 80	–	≥ 80	–	–	–	–	–	–
COc1nc(-c2cccc(-c3cc(C)ccc3C)n2)nc2sccc12 [Compound T15.8]	–	–	≥ 80	≥ 80	≥ 80	–	–	–	–	≥ 80
COc1nc(-c2cccc(C#CC3CC3)n2)nc2sccc12 [Compound T15.9]	–	≥ 80	≥ 80	≥ 80	–	–	–	–	–	–
Cc1cccc(-c2nc(-c3ccccc3)c3ncccc3n2)n1 [Compound T15.10]	–	–	≥ 80	≥ 80	≥ 80	≥ 80	≥ 80	≥ 80	≥ 80	≥ 80
COc1cccc(-c2nc(-c3cccc(C)n3)nc3sccc23)c1 [Compound T15.11]	–	≥ 80	≥ 80	≥ 80	≥ 80	≥ 80	≥ 80	≥ 80	≥ 80	≥ 80
Cc1cccc(-c2nc(-c3cccc(C)n3)nc3sccc23)c1 [Compound T15.12]	–	≥ 80	≥ 80	≥ 80	≥ 80	≥ 80	≥ 80	≥ 80	≥ 80	≥ 80
Cc1cccc(-c2nc(-c3ccccc3C)c3ccsc3n2)n1 [Compound T15.13]	–	–	≥ 80	≥ 80	≥ 80	–	≥ 80	≥ 80	≥ 80	–
Cc1cccc(-c2nc(-c3ccccc3Cl)c3ccsc3n2)n1 [Compound T15.14]	–	–	≥ 80	≥ 80	≥ 80	–	≥ 80	≥ 80	≥ 80	≥ 80
Cc1cccc(-c2nc(-c3ccc(Cl)cc3)c3ccsc3n2)n1 [Compound T15.15]	–	≥ 80	≥ 80	≥ 80	≥ 80	≥ 80	≥ 80	≥ 80	≥ 80	≥ 80
c1ccc(Cc2cccc(-c3ncc4ccsc4n3)n2)cc1 [Compound T15.16]	–	≥ 80	≥ 80	≥ 80	≥ 80	≥ 80	≥ 80	≥ 80	≥ 80	≥ 80
